In patent US8980874B2, “Method and composition for treating diabetic ketoacidosis” (Midwestern University, priority 2009, dated 2015):
Entries after “also recorded” stand apart in the source; their conditions may differ. Where a name gives a salt, the structure may show the parent alone.

Key:
Assay type in all cases: in vivo
rat model of DKA [1] = assay: Plasma ET-1 level (Enzyme Immunometric Assay) in diabetic ketoacidosis rats; conditions: for plasma ET-1, Day 4 (pre tx): baseline before treatment; for plasma ET-1, Day 4 (pre tx) / plasma ET-1, Day 4 (end of tx): mean±SEM; for effect of treatment on plasma ET-1 level: day 4, result in words (Table 4, FIG. 9); for plasma ET-1, Day 4 (end of tx): saline+insulin, alone or after bolus BMS-182874 9 mg/kg or BQ123 1 mg/kg
Method: In order to analyze the change in plasma ET-1 level during the treatment, blood samples were withdrawn through right femoral artery of the rats before and at the end of experiment and were collected into chilled EDTA tubes (1 mg/mL blood) containing aprotinin (500 KIU/mL of blood). The blood samples were centrifuged at 1,600×g for 15 minutes at 0° C. and plasma separated was stored at −70° C. until analyzed. ET-1 level was estimated using Assay's Design's Endothelin-1 Enzyme Immunometric Assay Kit (Nowicki et al., 2005; Brondani et al., 2007). Briefly, plasma samples and standards were added to wells coated with a monoclonal antibody specific for ET-1. The plate then was washed after 24 hours of incubation, leaving only bound ET-1 on the plate. A solution of horseradish peroxidase (HRP) labeled monoclonal antibody to ET-1 then was added, which binds to the ET-1 captured on the plate. The plate was incubated for 30 min, then washed to remove excess HRP labeled antibody. A solution of 3,3′,5,5′-tetramethylbenzidine (TMB) substrate was added, which generates a blue color when catalyzed by the HRP. Hydrochloric acid (1N) was added to stop the substrate reaction, and the resulting yellow color was read at 450 nm using DTX 800 Multimode detector. The data was analyzed with Multimode Detection Software (Beckman Coulter, Inc., Fullerton, Calif.). The measured optical density is directly proportional to the concentration of ET-1 in either standards/plasma. Blood samples from all the groups were collected before the start and at end of the treatment.
(§1) Group 4: Diabetic saline/insulin treated (D-Saline+insulin treated): Rats were injected with streptozotocin in citrate buffer (150 mg/kg ip) to induce diabetes and ketoacidosis. On day three, rats were treated with 1.5 U/kg regular insulin (Humulin® R (Regular human insulin, rDNA origin). On day four, saline and insulin treatment was carried out. Rats were infused via cannulated femoral vein saline, 0.9% NaCl at 80 mL/kg/hr and 1.5 U/kg/hr regular insulin for one hour. During the next two through four hours, rats were infused with saline, 0.9% NaCl at 40 mL/kg/hr and 1.5 U/kg/hr regular insulin (Yuen et al., 2008).
(§2) Group 5: Diabetic BMS-182874/saline/insulin treated (D-BMS+Saline+insulin treated): Rats were injected with streptozotocin in citrate buffer (150 mg/kg ip) to induce diabetes and ketoacidosis. On day three, rats were treated with 1.5 U/kg regular insulin. On day four, rats were administered a bolus dose of selective ETA receptor antagonist, BMS-182874 (9 mg/kg), then saline and insulin treatment was carried out. Rats were infused via cannulated femoral vein saline, 0.9% NaCl at 80 mL/kg/hr and 1.5 U/kg/hr regular insulin for one hour. During the next two through four hours rats were infused with saline, 0.9% NaCl at 40 mL/kg/hr and 1.5 U/kg/hr regular insulin.
(§3) Group 6: Diabetic BQ123/saline/insulin treated (D-BQ+saline+insulin treated): Same as above for Group 5, except BQ123 (1 mg/kg body weight) is used as a substitute for BMS-182874 (9 mg/kg).
(§4) Data are presented as mean±SEM. The significance of differences was estimated by one-way analysis of variance (intra group comparison with respect to base line data) and two-way analysis of variance (inter group comparison with respect to corresponding time points from each groups) followed by application of the Dunnett's Multiple Comparisons and Bonferroni test respectively. A P value of less than 0.05 was considered to be significant. The statistical analysis was processed with GraphPad Prism software Version 5.00.

rat model of DKA [2] = assay: Brain blood perfusion (Laser Doppler Flowmetry) in diabetic ketoacidosis rats; conditions: day 4, FIG. 6, antagonist given with saline+insulin, result in words
Method: A burr hole was drilled into the rat skull approximately 2 millimeters (mm) to the left of midline, being careful not to disturb the brain tissue itself. Cerebrovascular perfusion was measured via a fiber optic probe (PF407) applied to the surface of the rat brain. The probe was connected to a Periflux PF2b 4000 Laser Doppler Flowmetry unit (Perimed, Stockholm, Sweden). The perfusion was determined by measuring the passage of red blood cells through the capillaries.
as §1, §2, §3, §4

rat model of DKA [3] = assay: Arterial blood gases, electrolytes, lactate and hematocrit in diabetic ketoacidosis rats; conditions: for arterial blood pH, Day 4 (pre-tx) / arterial blood pCO2, Day 4 (pre-tx) / arterial blood pO2, Day 4 (pre-tx) / blood K+ level, Day 4 (pre-tx) / blood Na+ level, Day 4 (pre-tx) / blood hematocrit (Hct), Day 4 (pre-tx): baseline; for arterial blood pH, Day 4 (pre-tx): instrument could not record pH below 6.80, mean±SEM; for arterial blood pCO2, Day 4 (pre-tx) / arterial blood pO2, Day 4 (pre-tx) / blood K+ level, Day 4 (pre-tx) / blood Na+ level, Day 4 (pre-tx) / blood hematocrit (Hct), Day 4 (pre-tx): mean±SEM; for effect of treatment on arterial blood pH (acidosis): day 4, antagonist given with saline+insulin; for effect of treatment on arterial blood pH (acidosis) / effect of treatment on blood K+ levels / effect of treatment on blood lactate levels / effect of treatment on hematocrit: result in words; for effect of treatment on blood K+ levels / effect of treatment on blood lactate levels / effect of treatment on hematocrit: day 4, compared to diabetic untreated rats; for arterial blood pCO2, Day 4 (1 hour of tx) / arterial blood pCO2, Day 4 (end of tx) / arterial blood pO2, Day 4 (1 hour of tx) / arterial blood pO2, Day 4 (end of tx) / blood K+ level, Day 4 (1 hour tx) / blood K+ level, Day 4 (end of tx) / blood Na+ level, Day 4 (1 hour of tx) / blood Na+ level, Day 4 (end of tx) / blood hematocrit (Hct), Day 4 (1 hour of tx) / blood hematocrit (Hct), Day 4 (end of tx) / arterial blood pH, Day 4 (1 hour of tx) / arterial blood pH, Day 4 (end of tx): saline+insulin, alone or after bolus BMS-182874 9 mg/kg or BQ123 1 mg/kg
Source text: Arterial blood pH, pO2, pCO2, Na^+, K^+, lactate, and hematocrit were monitored prior to, at one hour, and at the end of treatment. Blood samples were drawn from the arterial cannula using blood gas sampling syringes (Innovative Medical Technologies, Inc. Leawood, Kans.) and analyzed using a GEM Premier 3000 unit (Instrument Laboratory, Lexington, Mass.). Blood samples were withdrawn from the femoral artery for baseline reading prior to start of treatment, after the first hour of treatment, and then at the end of the treatment (fifth hour of experiment).
as §1, §2, §3, §4

[4] = day 4, BMS-182874+saline+insulin group

| Molecule | plasma ET-1, Day 4 (pre tx) (rat model of DKA [1]) [pg/mL] | effect of treatment on plasma ET-1 level (rat model of DKA [1]) | plasma ET-1, Day 4 (end of tx) (rat model of DKA [1]) [pg/mL] | arterial blood pCO2, Day 4 (pre-tx) (rat model of DKA [3]) [mmHg] | arterial blood pO2, Day 4 (pre-tx) (rat model of DKA [3]) [mmHg] | blood K+ level, Day 4 (pre-tx) (rat model of DKA [3]) [mmol/L] | blood Na+ level, Day 4 (pre-tx) (rat model of DKA [3]) [mmol/L] | blood hematocrit (Hct), Day 4 (pre-tx) (rat model of DKA [3]) [%] | effect of treatment on arterial blood pH (acidosis) (rat model of DKA [3]) | effect of treatment on blood K+ levels (rat model of DKA [3]) | effect of treatment on blood lactate levels (rat model of DKA [3]) | effect of treatment on hematocrit (rat model of DKA [3]) | arterial blood pCO2, Day 4 (1 hour of tx) (rat model of DKA [3]) [mmHg] | arterial blood pCO2, Day 4 (end of tx) (rat model of DKA [3]) [mmHg] | arterial blood pO2, Day 4 (1 hour of tx) (rat model of DKA [3]) [mmHg] | arterial blood pO2, Day 4 (end of tx) (rat model of DKA [3]) [mmHg] | blood K+ level, Day 4 (1 hour tx) (rat model of DKA [3]) [mmol/L] | blood K+ level, Day 4 (end of tx) (rat model of DKA [3]) [mmol/L] | blood Na+ level, Day 4 (1 hour of tx) (rat model of DKA [3]) [mmol/L] | blood Na+ level, Day 4 (end of tx) (rat model of DKA [3]) [mmol/L] | also measured |
| --- | --- | --- | --- | --- | --- | --- | --- | --- | --- | --- | --- | --- | --- | --- | --- | --- | --- | --- | --- | --- | --- |
| Cc1noc(NS(=O)(=O)c2cccc3c(N(C)C)cccc23)c1C [BMS-182874, (5-Dimethylamino)-N-(3,4-dimethyl-5-isoxazolyl)-1-naphthalene sulfonamide hydrochloride] | 11.93 ± 2.01 | did not significantly affect plasma ET-1 level | 20.40 ± 3.23 | 28.71 ± 2.08 | 156.71 ± 7.11 | 4.21 ± 0.33 | 135.71 ± 2.06 | 45.71 ± 1.48 | produced a significant improvement in arterial blood pH | significantly reduced the change in blood K^+ levels | significantly reduced the change in blood lactate levels | significantly reduced the hematocrit | 30.57 ± 1.94 | 30.57 ± 2.23 | 135.57 ± 6.37 | 143.85 ± 6.59 | 2.62 ± 0.29 | 2.75 ± 0.27 | 143.42 ± 1.84 | 146.14 ± 1.14 | effect on cerebral blood perfusion (rat model of DKA [2]; hydrochloride): significantly blocked; also recorded: prevented; effect on cerebral blood perfusion (rat model of DKA [2]; listed as BMS182874, hydrochloride): prevented an insulin induced increase in cerebral blood perfusion; arterial blood pH, Day 4 (pre-tx) (rat model of DKA [3]; hydrochloride): 6.82±0.02; arterial blood pH, Day 4 (pre-tx) (rat model of DKA [3]; listed as BMS, hydrochloride): 6.82 ± 0.02; blood K+ levels, after treatment (to) (rat model of DKA [3]; [4]): 2.75 ± 0.27 mM; blood K+ levels, before treatment (from) (rat model of DKA [3]; [4]): 4.21 ± 0.33 mM; blood hematocrit (Hct), Day 4 (1 hour of tx) (rat model of DKA [3]): 33.28 ± 1.52 %; blood hematocrit (Hct), Day 4 (end of tx) (rat model of DKA [3]): 29.28 ± 2.22 %; arterial blood pH, Day 4 (1 hour of tx) (rat model of DKA [3]; instrument floor 6.80): 6.81 ± 0.01; arterial blood pH, Day 4 (end of tx) (rat model of DKA [3]; instrument floor 6.80, hydrochloride): 6.91±0.02; arterial blood pH, Day 4 (end of tx) (rat model of DKA [3]; instrument floor 6.80, listed as BMS, hydrochloride): 6.91 ± 0.02 |
| Insulin: Humulin® R (Regular human insulin, rDNA origin), infused with saline | 11.76 ± 1.94 | increased the plasma levels of ET-1 | 22.17 ± 2.67 | 30.40 ± 2.46 | 145.00 ± 10.84 | 3.82 ± 0.29 | 135.00 ± 2.17 | 49.80 ± 2.27 | did not produce any significant improvement in acidosis | significantly reduced the change in blood K^+ levels | significantly reduced the change in blood lactate levels | significantly reduced the hematocrit | 29.00 ± 2.30 | 27.60 ± 2.21 | 160.20 ± 11.36 | 155.60 ± 11.43 | 2.92 ± 0.16 | 2.48 ± 0.24 | 141.60 ± 1.21 | 148.60 ± 0.51 | effect on cerebral blood perfusion (rat model of DKA [2]): produced a marked (#P<0.05) increase in cerebral blood perfusion; arterial blood pH, Day 4 (pre-tx) (rat model of DKA [3]): 6.81 ± 0.01; blood hematocrit (Hct), Day 4 (1 hour of tx) (rat model of DKA [3]): 38.80 ± 1.80%; blood hematocrit (Hct), Day 4 (end of tx) (rat model of DKA [3]): 30.20 ± 3.12 %; arterial blood pH, Day 4 (1 hour of tx) (rat model of DKA [3]; instrument floor 6.80): 6.80 ± 0.01; arterial blood pH, Day 4 (end of tx) (rat model of DKA [3]; instrument floor 6.80): 6.81 ± 0.04 |
